Experimental data from article PMC12362783 (Advanced Science, 2025).

Tests used:
MDA‐MB‐231 = test: Cell growth inhibition, CellTiter‐Glo (CTG); format: cell-based
Protocol: (§1) All cells were grown in a humidified incubator at 37 °C and 5% CO2.
(§2) […] […] Relative viability was calculated by normalizing the raw luminescence counts of the treated groups to those of the DMSO control groups. IC₅₀ values were calculated using sigmoidal dose‐response curve fitting with GraphPad Prism 9.0 software.

MDA‐MB‐468 = test: Cell growth inhibition, CellTiter‐Glo (CTG); format: cell-based
Protocol: as §1, §2

DNA‐PK = DNA‐PK (Homo sapiens, UniProt P78527); test: PIKK family kinase selectivity; format: biochemical
ATM = ATM (Homo sapiens, UniProt Q13315); test: PIKK family kinase selectivity; format: biochemical
PARP2 = PARP2 (Homo sapiens, UniProt Q9UGN5); test: PARP family selectivity; format: biochemical
Protocol: (§3) The PARP activity assay was performed by ChemPartner (Shanghai, China). Each well was precoated with histone (final conc.: 100 ng mL^−1) diluted in PBS buffer (contains 10 mmol L^−1 NaH2PO4 and 150 mmol L^−1 NaCl, pH 7.4) by incubation at 4 °C overnight. […] The reaction was initiated by the addition of 10 µL of PARP (final conc.: 0.007 nM/well) at room temperature for 60 min. Add 20 µL of anti‐Poly/Mono‐ADP Ribose Rabbit mAb. Incubate for 1.5 h at room temperature and wash the plate three times using PBST buffer. […] Incubate for 1 h at room temperature and wash the plate three times using PBST buffer. Add 25 µL Femto‐ECL Substrate A and Femto‐ECL Substrate B (1:1) mix. Immediately read chemiluminescence on Envision (Revvity, USA).

PARP7 = PARP7 (Homo sapiens, UniProt Q7Z3E1); test: PARP family selectivity; format: biochemical
Protocol: as §3

MDA‐MB‐468 xenograft = test: MDA‐MB‐468 xenografted mice model, antitumor efficacy; format: in vivo; conditions: 28 days
Protocol: Anticancer efficacy experiment in MDA‐MB‐468 Xenografted mice model was performed by Shanghai Medicilon Inc. All animal experiments in this study were conducted in strict accordance with national animal welfare regulations and were approved by the institutional animal ethics committee (Approval number: IACUC‐HZN2401P; Approval Date: 2024‐10‐18). MDA‐MB‐468 cells (1 × 10^7) were implanted in the right flanks subcutaneously in female nude mice. When the implanted tumor grew to a volume of 110 mm^3, the animals were randomly divided into four groups, each group containing four animals. Compound B8 was intraperitoneally (IP) administered at two different doses, bis in die (BID) for 28 days: low dose: 25 mg k^−1g and high dose 50 mg k^−1g. […] Tumor size and body weights were measured twice a week. On day 28, the mice were euthanized, tumors were harvested and weighed, and vital organs (heart, liver, spleen, lung, and kidney) were collected. Processed samples were saved for further safety evaluation.

[1] = tested on: TNBC cells (MDA‐MB‐231, MDA‐MB‐468, MDA‐MB‐436); test: Anti‐proliferative activity across three TNBC cell lines (summary); format: cell-based; conditions: read-out: IC50 range across three TNBC cell lines
Protocol: Cells were grown at 37 °C, under 95% air and 5% CO₂ until they reached about 70% confluence and were subcultured at least twice before the experiment. Cells were seeded at a density of 1000 cells/well in two 384‐well white plates, and the plates were placed in a 5% CO₂ incubator overnight. Growth viability was determined by the CellTiter‐Glo luminescent viability assay (Promega) 5 days after drug treatment. Cell viability was measured immediately after dosing (Day 0) and after 5 days of incubation using CellTiter‐Glo (CTG, Promega, G7573). Relative viability was calculated by normalizing the raw luminescence counts of the treated groups to those of the DMSO control groups. IC₅₀ values were calculated using sigmoidal dose‐response curve fitting with GraphPad Prism 9.0 software.

MDA‐MB‐231 cells [2] = test: Wound‐healing and transwell migration assay; format: cell-based; conditions: vs AZD6738 and Olaparib alone or their combination
Protocol: For the wound‐healing assay, MDA‐MB‐231 cells were seeded into 6‐well plates and grown to 80% confluence. A scratch was made in the cell monolayer using a 20 µL pipette tip, and the cells were washed with PBS to remove floating cells and debris. The cells were then incubated in serum‐free medium. Cells are divided into control and drug treatment Cells in the scratched area were imaged at 0 and 48 h using microscopy, and the distance traveled by cells at the leading edge of the wound at each time point was measured. To assess cell migration, a transwell assay was performed. […] Following 24 h of incubation, the filters were fixed in 4% paraformaldehyde, stained with 0.1% crystal violet, and then imaged and counted under a microscope to determine the number of invading cells. To assess cell invasion, the transwell plate was coated with a layer of Matrigel, and the rest procedure is similar to what has been described above.

MDA‐MB‐231 cells [3] = test: Comet assay, DNA damage; format: cell-based; conditions: 24 h, vs AZD6738, Olaparib, and their combination
MDA‐MB‐468 cells = test: Western blotting analysis; format: cell-based; conditions: 48 h
Protocol: Cells were washed with cold PBS and lysed in RIPA buffer containing protease inhibitors (MCE, HY‐K0010). The lysate was centrifuged (13 000 rpm, 4 °C, 15 min); the protein concentrations were determined by the BCA Assay Kit (Beyotime, p0012s). Proteins were loaded onto 10% SDS‐PAGE gel and then transferred onto polyvinylidene fluoride (Millipore) membranes. The membranes were blocked for 1 h, incubated with primary antibodies overnight at 4 °C, and then washed three times with Tris‐buffered saline with Tween 20 (TBST) for 10 min. After incubating with the secondary HRP antibody for 1 h at room temperature, the membranes were washed three times with TBST for 10 min and then exposed on autoradiograph films using enhanced chemiluminescence. The primary antibodies used were ATR (1/1000 dilution, CST#13 934), PARP1 (1/1000 dilution, CST#9532), BCL‐2 (1/1000 dilution, CST#4223), Bax (1/1000 dilution, CST#5023), Caspase 3 (1/1000 dilution, CT#9662), Cleaved caspase 3 (1/1000 dilution, CST#9661), E‐cadherin (1/1000 dilution, CST#3195), Vimetin (1/1000 dilution, CST#5741), p‐CHK1 (1/1000 dilution, CST#2348), CHK1 (1/1000 dilution, CST#2360), CDK1 (Proteintech#19532‐1‐AP), p‐CDK1 (CST#9114), γH2AX (1/1000 dilution, CST#9718), and β‐Actin (1/1000 dilution, Proteintech# 66009‐1‐Ig).

[4] = 24, 48, 72 h treatment, Figure S2
[5] = compared to the combination group

Sequence of PARP2 (Q9UGN5 whole entry, species assumed): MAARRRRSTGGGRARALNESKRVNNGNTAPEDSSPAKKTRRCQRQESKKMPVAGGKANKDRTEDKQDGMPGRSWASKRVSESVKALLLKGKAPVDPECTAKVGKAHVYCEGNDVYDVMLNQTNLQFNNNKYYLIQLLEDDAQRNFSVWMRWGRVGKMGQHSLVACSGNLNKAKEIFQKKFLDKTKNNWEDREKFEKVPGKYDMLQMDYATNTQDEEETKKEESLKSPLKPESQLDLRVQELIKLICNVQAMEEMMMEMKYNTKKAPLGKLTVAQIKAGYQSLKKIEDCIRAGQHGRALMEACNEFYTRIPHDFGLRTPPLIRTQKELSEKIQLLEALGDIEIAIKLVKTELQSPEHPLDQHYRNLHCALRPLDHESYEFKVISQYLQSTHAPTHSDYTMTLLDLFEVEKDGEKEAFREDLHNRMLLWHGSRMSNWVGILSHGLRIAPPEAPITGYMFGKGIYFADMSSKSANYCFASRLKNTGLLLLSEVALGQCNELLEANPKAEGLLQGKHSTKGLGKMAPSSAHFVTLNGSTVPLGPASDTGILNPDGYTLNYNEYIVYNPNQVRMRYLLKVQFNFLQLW
Sequence of PARP7 (Q7Z3E1 whole entry, species assumed): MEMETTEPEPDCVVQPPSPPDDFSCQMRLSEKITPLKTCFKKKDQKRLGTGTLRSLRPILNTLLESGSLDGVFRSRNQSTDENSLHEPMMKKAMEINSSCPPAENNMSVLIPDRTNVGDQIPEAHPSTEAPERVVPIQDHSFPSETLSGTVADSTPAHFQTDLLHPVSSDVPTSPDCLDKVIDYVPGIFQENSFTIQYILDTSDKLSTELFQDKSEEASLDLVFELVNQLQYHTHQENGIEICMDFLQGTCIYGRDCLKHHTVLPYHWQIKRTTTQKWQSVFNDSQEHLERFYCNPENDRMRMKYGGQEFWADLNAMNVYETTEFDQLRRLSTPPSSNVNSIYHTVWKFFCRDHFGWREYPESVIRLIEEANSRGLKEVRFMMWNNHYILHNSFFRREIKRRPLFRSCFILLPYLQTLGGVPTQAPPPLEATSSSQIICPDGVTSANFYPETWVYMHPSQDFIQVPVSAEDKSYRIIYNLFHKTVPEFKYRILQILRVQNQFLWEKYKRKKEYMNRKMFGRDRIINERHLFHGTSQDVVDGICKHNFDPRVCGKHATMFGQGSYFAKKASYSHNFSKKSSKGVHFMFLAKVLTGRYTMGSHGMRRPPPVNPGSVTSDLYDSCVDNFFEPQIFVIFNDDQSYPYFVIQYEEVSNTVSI
Sequence of ATM (Q13315 whole entry, species assumed): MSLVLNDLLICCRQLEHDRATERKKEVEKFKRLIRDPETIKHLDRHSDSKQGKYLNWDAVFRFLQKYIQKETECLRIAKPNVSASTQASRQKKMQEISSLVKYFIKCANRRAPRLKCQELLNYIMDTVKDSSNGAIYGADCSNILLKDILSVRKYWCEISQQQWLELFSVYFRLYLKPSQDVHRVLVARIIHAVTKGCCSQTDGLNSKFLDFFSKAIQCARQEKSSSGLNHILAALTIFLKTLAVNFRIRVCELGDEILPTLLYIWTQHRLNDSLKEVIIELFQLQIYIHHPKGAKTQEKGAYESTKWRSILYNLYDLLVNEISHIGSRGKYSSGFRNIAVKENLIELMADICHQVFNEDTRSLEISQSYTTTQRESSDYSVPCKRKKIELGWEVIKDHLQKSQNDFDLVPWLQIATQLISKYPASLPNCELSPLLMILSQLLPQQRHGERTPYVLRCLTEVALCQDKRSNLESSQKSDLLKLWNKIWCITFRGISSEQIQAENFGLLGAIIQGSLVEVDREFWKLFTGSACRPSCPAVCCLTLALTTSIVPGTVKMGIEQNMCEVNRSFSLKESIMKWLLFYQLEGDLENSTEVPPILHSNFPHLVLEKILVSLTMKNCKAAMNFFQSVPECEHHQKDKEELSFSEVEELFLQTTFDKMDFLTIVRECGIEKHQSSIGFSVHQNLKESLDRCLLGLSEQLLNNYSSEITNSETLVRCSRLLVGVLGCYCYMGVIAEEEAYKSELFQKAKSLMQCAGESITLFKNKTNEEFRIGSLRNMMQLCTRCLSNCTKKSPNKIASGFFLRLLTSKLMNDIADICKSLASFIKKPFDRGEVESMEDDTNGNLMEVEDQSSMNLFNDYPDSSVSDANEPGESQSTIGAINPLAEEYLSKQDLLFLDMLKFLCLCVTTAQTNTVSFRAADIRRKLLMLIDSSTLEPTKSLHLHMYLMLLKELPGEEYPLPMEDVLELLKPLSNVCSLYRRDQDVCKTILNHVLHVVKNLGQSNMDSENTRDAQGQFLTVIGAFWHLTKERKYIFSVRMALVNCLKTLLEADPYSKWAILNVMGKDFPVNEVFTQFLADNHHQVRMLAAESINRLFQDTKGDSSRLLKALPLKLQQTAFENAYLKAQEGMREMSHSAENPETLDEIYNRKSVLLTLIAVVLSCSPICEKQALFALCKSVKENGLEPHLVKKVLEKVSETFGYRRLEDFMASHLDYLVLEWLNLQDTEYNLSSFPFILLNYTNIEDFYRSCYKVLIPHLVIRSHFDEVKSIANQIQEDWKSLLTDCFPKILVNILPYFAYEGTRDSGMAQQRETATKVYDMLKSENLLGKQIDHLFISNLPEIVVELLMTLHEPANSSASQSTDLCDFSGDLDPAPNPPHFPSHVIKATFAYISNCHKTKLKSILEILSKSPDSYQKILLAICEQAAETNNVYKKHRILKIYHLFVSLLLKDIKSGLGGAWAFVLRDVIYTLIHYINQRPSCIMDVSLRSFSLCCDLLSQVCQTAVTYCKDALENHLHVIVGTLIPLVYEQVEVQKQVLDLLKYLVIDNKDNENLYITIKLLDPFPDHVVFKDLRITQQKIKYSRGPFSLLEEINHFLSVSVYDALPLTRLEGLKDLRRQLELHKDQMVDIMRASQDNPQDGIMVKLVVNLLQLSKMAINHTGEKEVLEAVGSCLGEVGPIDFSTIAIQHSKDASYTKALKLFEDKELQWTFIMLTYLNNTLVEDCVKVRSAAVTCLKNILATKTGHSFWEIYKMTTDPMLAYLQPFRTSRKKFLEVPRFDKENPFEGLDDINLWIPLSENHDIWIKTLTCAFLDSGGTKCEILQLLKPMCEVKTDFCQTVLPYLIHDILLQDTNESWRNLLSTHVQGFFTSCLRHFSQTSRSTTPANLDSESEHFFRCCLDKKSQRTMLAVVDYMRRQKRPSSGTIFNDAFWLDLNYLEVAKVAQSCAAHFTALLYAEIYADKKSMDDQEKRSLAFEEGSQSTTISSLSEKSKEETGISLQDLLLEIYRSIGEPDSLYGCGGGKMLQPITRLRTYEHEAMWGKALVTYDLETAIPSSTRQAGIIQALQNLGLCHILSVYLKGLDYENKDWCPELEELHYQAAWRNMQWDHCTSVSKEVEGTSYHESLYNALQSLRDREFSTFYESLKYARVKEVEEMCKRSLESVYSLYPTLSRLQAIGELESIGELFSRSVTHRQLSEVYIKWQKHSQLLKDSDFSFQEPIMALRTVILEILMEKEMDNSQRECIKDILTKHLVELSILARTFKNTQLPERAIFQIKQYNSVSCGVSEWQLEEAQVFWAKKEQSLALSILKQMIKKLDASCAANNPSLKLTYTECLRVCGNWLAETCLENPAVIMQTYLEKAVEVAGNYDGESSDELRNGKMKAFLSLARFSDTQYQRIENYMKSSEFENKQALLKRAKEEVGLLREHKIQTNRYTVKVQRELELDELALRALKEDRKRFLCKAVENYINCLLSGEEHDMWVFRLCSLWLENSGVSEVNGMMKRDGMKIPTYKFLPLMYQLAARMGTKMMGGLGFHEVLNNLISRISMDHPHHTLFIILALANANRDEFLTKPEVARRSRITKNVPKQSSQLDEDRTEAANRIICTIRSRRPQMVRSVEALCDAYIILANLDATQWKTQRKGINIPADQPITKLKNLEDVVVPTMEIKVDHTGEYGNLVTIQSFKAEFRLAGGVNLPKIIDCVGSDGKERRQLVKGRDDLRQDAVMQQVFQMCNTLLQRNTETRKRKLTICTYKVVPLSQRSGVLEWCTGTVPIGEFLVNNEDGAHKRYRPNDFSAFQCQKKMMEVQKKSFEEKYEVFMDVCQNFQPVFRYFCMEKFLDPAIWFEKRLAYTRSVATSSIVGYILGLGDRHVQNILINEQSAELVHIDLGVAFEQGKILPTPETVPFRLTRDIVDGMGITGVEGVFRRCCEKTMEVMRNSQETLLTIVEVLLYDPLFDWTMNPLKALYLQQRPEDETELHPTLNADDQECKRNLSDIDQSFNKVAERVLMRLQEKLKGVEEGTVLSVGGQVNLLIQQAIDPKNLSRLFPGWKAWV

C[C@@H]1COCCN1c1cc(CNC(=O)c2ccc(C(=O)N3CCN(C(=O)c4cc(Cc5n[nH]c(=O)c6ccccc56)ccc4F)CC3)cc2)nc(-c2ccnc3[nH]ccc23)n1 [Compound B8, (R)‐4‐(4‐(2‐fluoro‐5‐((4‐oxo‐3,4‐dihydrophthalazin‐1‐yl)methyl)benzoyl)piperazine‐1‐carbonyl)‐N‐((6‐(3‐methylmorpholino)‐2‐(1H‐pyrrolo[2,3‐b]pyridin‐4‐yl)pyrimidin‐4‐yl)methyl) benzamide]
anti‐proliferation effect at different time points (MDA‐MB‐231; [4]): exerted anti‐proliferation activity | IC50 (MDA‐MB‐231; Homo sapiens, MDA-MB-231, 120 h, read-out: IC50 MDA‐MB‐231, CTG, 5 days, n = 3): 1890 ± 130 nM | anti‐proliferation effect at different time points (MDA‐MB‐468; [4]): exerted anti‐proliferation activity | IC50 (MDA‐MB‐468; Homo sapiens, MDA-MB-468, 120 h, CTG, 5 days, n = 3): 320 ± 10 nM | IC50 (DNA‐PK): > 5000 nM | IC50 (ATM): > 5000 nM | IC50 (PARP2): 5.1 nM | PARP2 (selectivity over PARP1, fold) (PARP2; fold of PARP1 selectivity over PARP2): 13.4 fold | IC50 (PARP7): 28.5 ± 1.3 nM | PARP7 (selectivity over PARP1, fold) (PARP7; fold of PARP1 selectivity over PARP7): 75 fold | tumor growth inhibition rate (TGI) (MDA‐MB‐468 xenograft; B8 50 mg/kg I.P., female nude mice): 68.36% | tumor weight and volume (MDA‐MB‐468 xenograft; B8‐treated mice): significantly lower than control groups | IC50 [1]: 9 to 1890 nM | migratory capacity (MDA‐MB‐231 cells [2]): superior inhibitory effect on the migratory capacity | comet assay tail intensity (MDA‐MB‐231 cells [3]): markedly increased tail intensity | BCL‐2 protein expression (Western blot) (MDA‐MB‐468 cells): significantly decreased the protein expression of BCL‐2 | CDK1 Tyr15 phosphorylation (Western blot) (MDA‐MB‐468 cells): enhanced CDK1 Tyr15 phosphorylation | CHK1 Ser345 phosphorylation (Western blot) (MDA‐MB‐468 cells): significantly decreased CHK1 Ser345 phosphorylation | E‐cadherin expression (Western blot) (MDA‐MB‐468 cells; [5]): significant increase in the expression of the epithelial cell marker E‐cadherin | Vimentin expression (Western blot) (MDA‐MB‐468 cells; [5]): decrease in the expression of the mesenchymal cell marker Vimentin | BAX and cleaved‐caspase‐3 protein expression (Western blot) (MDA‐MB‐468 cells; compared to the combination of AZD6738 and Olaparib): induced more BAX and cleaved‐caspase‐3 protein expression | DSB marker γH2AX (Western blot) (MDA‐MB‐468 cells; B8 1.0 and 2.0 µM): significantly increased than under the combination treatment | protein levels of ATR and PARP1 (Western blot) (MDA‐MB‐468 cells; B8 1.0 and 2.0 µM, vs Olaparib or AZD6738 alone or in combination): reduction in the protein levels of both ATR and PARP1
